Article PMC12040169 (PLOS Biology, 2025)

experiment: in vitro; conditions: human, hela cells, % viability

Row | SMILES | viability at 28.5 h, 10 µM [%]
1 | Cc1ccsc1CN(CCCO)Cc1cn(C)nc1C [CBK282983] | 95.7
2 | Cc1c(CNC2(c3ccccc3F)CCCC2)c(=O)n(C)c(=O)n1C [CBK282986] | 85.1
3 | CCCc1cc(C2CCCCCN2C(=O)c2cccnc2)no1 (stereo not drawn) [CBK282987] | 99.5
4 | Clc1ccccc1CN(CCCn1ccnc1)Cc1c[nH]cn1 [CBK282988] | 100
5 | COc1cccc(CN2CCCC(c3nc(C)n4ccccc34)C2)c1 (stereo not drawn) [CBK282989] | 101
6 | COc1ccc([C@H]2C3CCCCC3[C@@H]2NC(=O)C2CCCO2)cc1 (stereo partly drawn) [CBK282990] | 108
7 | Cc1cc(C)n(CC(=O)N2CCCC2c2ccc(C)c(C)c2)c(=O)n1 (stereo not drawn) [CBK282991] | 99
8 | Cc1ncc(CN(CCN(C)C)Cc2cccs2)n1C [CBK282993] | 93.4
9 | O[C@@]1(c2ccccn2)CC[C@H]2CN(CC3CCCCC3)C[C@H]21 [CBK282996] | 96.9
10 | Cc1cc(C[C@@H]2CCC[C@H]2NCc2cc(Cl)ccc2O)on1 [CBK282997] | 103
11 | CC(C)N1CCC(N(C)Cc2c[nH]nc2C(C)(C)C)CC1 [CBK283002] | 92.9
12 | CCCC(=O)N1CCCC1c1cc2n(n1)[C@@H](C(F)(F)F)C[C@@H](C)N2 (stereo partly drawn) [CBK283003] | 92.4
13 | COc1ccccc1CN[C@@H]1CCC[C@H]1Cc1cc(C)no1 [CBK283005] | 103
14 | CC(=O)OCc1ccc(CN2CCCCCC2c2cc(C)no2)o1 (stereo not drawn) [CBK283007] | 100
15 | CCn1ncc(CN2CCCCCC2c2cc(C)no2)c1C (stereo not drawn) [CBK283008] | 92.9
16 | OC1(c2cccnc2)CCCN(Cc2ccccc2F)CC1 (stereo not drawn) [CBK283009] | 96.4
17 | O=C(Cn1cncn1)N[C@H]1C2CCCCC2[C@@H]1c1ccccc1 (stereo partly drawn) [CBK283011] | 93.3
18 | CCC1c2cccn2CCN1Cc1cncn1CC (stereo not drawn) [CBK283012] | 85.8
19 | Cc1nn(C)cc1CN(Cc1cccc(F)c1)CC1CCCO1 (stereo not drawn) [CBK283013] | 100
20 | Cc1nn(C)cc1CN(Cc1ccccc1F)CC1CCCO1 (stereo not drawn) [CBK283014] | 106
21 | C=Cn1cc(CN2C3CCC2CC(O)(c2ccc(C)cc2)C3)c(C)n1 (stereo not drawn) [CBK283015] | 90.5

Row | SMILES | viability at 28.5 h, 10 µM [%]
22 | Cc1nn(C(C)C)c(C)c1CN(CCO)Cc1cccs1 [CBK283016] | 86
23 | OCCN(Cc1cccnc1)Cc1cccn1-c1ccccc1F [CBK283019] | 92.2
24 | Cn1ccnc1CN(CCCn1ccnc1)Cc1ccccc1F [CBK283022] | 102
25 | OCCN(Cc1cccnc1)Cc1cccn1-c1ccc(F)cc1 [CBK283023] | 95.9
26 | Fc1ccccc1CN(CCCn1ccnc1)Cc1ccoc1 [CBK283024] | 89.9
27 | CC(C)n1nccc1C(=O)NCC(c1ccc(F)cc1)N1CCCC1 (stereo not drawn) [CBK283025] | 87.3
28 | COc1ccccc1CN1CCCC(c2nc(C)n3ccccc23)C1 (stereo not drawn) [CBK283026] | 87.6
29 | O=C(C1CCC1)N1CCC(c2nc(Cc3cccs3)no2)C1 (stereo not drawn) [CBK283028] | 90.9
30 | Cc1ccc(CN[C@@H]2COC[C@H]2Cc2cc(C)no2)cc1 [CBK283030] | 106
31 | CC(C)n1nccc1C(=O)NCC(c1ccccc1F)N1CCCC1 (stereo not drawn) [CBK283032] | 94.1
32 | Cc1ccccc1-n1nc(C)c(CN(C)CC2CCN(C)C2)c1C (stereo not drawn) [CBK283035] | 82.6
33 | CCn1cncc1CN(Cc1ccc(F)cc1)CC1CCCO1 (stereo not drawn) [CBK283036] | 98
34 | CN(C)CCCN(Cc1cnn(C)c1)Cc1ccco1 [CBK283039] | 112
35 | CN(C)CCCN(Cc1cnn(-c2ccccc2)c1)Cc1ccco1 [CBK283040] | 110
36 | O=C(NC1CCN(Cc2ccccc2)C1)c1ccc(F)cc1 (stereo not drawn) [CBK283044] | 97.8
37 | Cc1cc(C2CCCCCN2C(=O)c2c(Cl)cnn2C)on1 (stereo not drawn) [CBK283045] | 108
38 | Cn1ccc(C2CCCCCN2C(=O)c2cc(C3CC3)on2)n1 (stereo not drawn) [CBK283050] | 104
39 | CCN(CC)Cc1ccc(C(=O)N2CCC(c3ccncc3)CC2)o1 [CBK283051] | 105
40 | Fc1ccc([C@@H]2CN(Cc3cccnc3)C[C@H]2c2cc[nH]n2)cc1 [CBK283054] | 100
41 | O=C(C1CC1)N1CC2CN(Cc3ccccc3)CC2C12CCOCC2 (stereo not drawn) [CBK283055] | 103
42 | CCCC(=O)N1CCCC(c2nnc(-c3cccs3)o2)C1 (stereo not drawn) [CBK283057] | 83.6

Row | SMILES | viability at 28.5 h, 10 µM [%]
43 | Cc1ccc(-c2nnc(C3CCCN(C(=O)C(C)C)C3)o2)s1 (stereo not drawn) [CBK283058] | 96.9
44 | CCc1cc(CNS(=O)(=O)Cc2cccc(F)c2)on1 [CBK283061] | 92.1
45 | O=C(CCn1ccnc1)NCC1Cc2ccccc2O1 (stereo not drawn) [CBK283062] | 81
46 | Cc1cc(C)n(C)c(=O)c1C(=O)NC(C)Cc1ccccn1 (stereo not drawn) [CBK283063] | 105
47 | CCc1cc(CNS(=O)(=O)c2ccc(C)s2)on1 [CBK283066] | 99.6
48 | CC1Cc2cc(CC(=O)N(C)CC(F)(F)F)ccc2O1 (stereo not drawn) [CBK283067] | 109
49 | Cc1[nH]c2cccc(C(=O)N(C)CCc3cn[nH]c3)c2c1C [CBK283070] | 85.4
50 | CCCc1cc(C(=O)N2CCc3sccc3C2C)[nH]n1 (stereo not drawn) [CBK283072] | 101
51 | CCCC(=O)NC(c1ccccn1)C1CCC(CNC(C)=O)CC1 (stereo not drawn) [CBK283080] | 102
52 | CC(C)S(=O)(=O)N1C[C@@H](c2ccccc2)[C@H]2[C@H]1CCCCCN2C [CBK283083] | 91.1
53 | O=C(CN1CCCCCC1)N1CCCC1c1n[nH]cc1-c1cccc(Cl)c1 (stereo not drawn) [CBK283084] | 94.7
54 | O=C(NC1(C#Cc2cnc3ccccc3c2)CCCCC1)C1CCCO1 (stereo not drawn) [CBK283085] | 81.9
55 | OCC1CCN(Cc2cnn(C3CCCCC3)c2)C1 (stereo not drawn) [CBK283086] | 88.4
56 | O=C(NCCn1cncn1)C1(c2ccccc2F)CC1 [CBK283087] | 87
57 | Cc1ccc([C@]2(O)CC[C@H]3CN(Cc4cccc(F)c4F)C[C@H]32)nc1 [CBK283088] | 98.1
58 | COc1ccc(N(Cc2cccnc2)C(=O)c2ccc(-c3ccccc3)[nH]c2=O)cc1 [CBK283089] | 105
59 | NC(=O)CN1C(=O)[C@@H]2CCCN2C(=O)c2ccccc21 [CBK283090] | 110
60 | CC1Cc2cc(C(O)CN3CCC(O)(c4ccccc4F)CC3)ccc2N1S(C)(=O)=O (stereo not drawn) [CBK283091] | 87.5
61 | CC(=O)N1CCc2cc(C(O)CN3CCN(c4nsc5ccccc45)CC3)ccc21 (stereo not drawn) [CBK283092] | 93.3
62 | CC(C)NC(=O)C1CN(Cc2ccccc2)CC12CCc1ccccc1C2NC(=O)CN (stereo not drawn) [CBK283093] | 79.4
63 | Cc1oc2ccccc2c1CN(CCN(C)C)Cc1ccncc1 [CBK283097] | 87.8

Row | SMILES | viability at 28.5 h, 10 µM [%]
64 | Cc1nn(C)cc1CN(CCCn1ccnc1)Cc1cccc(F)c1 [CBK283098] | 92.3
65 | Cc1ccc(CN(CCCn2ccnc2)Cc2cccnc2)o1 [CBK283100] | 106
66 | CCn1cncc1CN(CCCn1ccnc1)Cc1ccc(C)s1 [CBK283104] | 93.6
67 | OC1(c2ccc(F)cc2)CCC2CN(CC3CC3)CC21 (stereo not drawn) [CBK283105] | 88.9
68 | Cc1ccc(CN(CCCn2ccnc2)Cc2cncn2C)s1 [CBK283106] | 90.2
69 | CS(=O)(=O)N1CC2CCCC(O)(c3cccc(F)c3)C2C1 (stereo not drawn) [CBK283107] | 97.3
70 | CC(C)S(=O)(=O)N1CC2CCCC(O)(c3cccc(F)c3)C2C1 (stereo not drawn) [CBK283109] | 109
71 | CCC(=O)N1CCc2cc(C(O)CN3CCCC3)ccc21 (stereo not drawn) [CBK283110] | 97.7
72 | CCC(=O)N1CCc2cc(C(O)CN3CCCCC3)ccc21 (stereo not drawn) [CBK283111] | 98.3
73 | CCC(=O)N1CCc2cc(C(O)CN3CCCCC3C)ccc21 (stereo not drawn) [CBK283112] | 105
74 | CCOc1ccc2[nH]c(C(=O)NC3CCCOC3)cc2c1 (stereo not drawn) [CBK283114] | 101
75 | CCc1c(C(=O)NC2CCCOC2)[nH]c2ccc(F)cc12 (stereo not drawn) [CBK283115] | 97.5
76 | COc1ccccc1CN(CCCn1ccnc1)Cc1ccco1 [CBK283116] | 111
77 | C=CCNCc1cc2c(C)nn(-c3ccc(F)cc3)c2[nH]c1=O [CBK283117] | 111
78 | CCn1cc(CN(CCCn2ccnc2)Cc2cccc(F)c2)cn1 [CBK283124] | 107
79 | CCNC(=O)c1ccc(-n2cccn2)c(C#Cc2ccccn2)c1 [CBK283125] | 111
80 | O=C1CC[C@@H](NCc2ccccc2O)[C@H](c2cc(F)cc(F)c2)N1 [CBK283126] | 107
81 | O=C1CC[C@@H](NCc2ccco2)[C@H](c2cc(F)cc(F)c2)N1 [CBK283127] | 102
82 | Cc1ccc(O)c(CN[C@@H]2CCC(=O)N[C@H]2c2cc(F)cc(F)c2)c1 [CBK283132] | 94
83 | COc1ccccc1C1(O)CCCC2CN(C(C)=O)CC21 (stereo not drawn) [CBK283134] | 102
84 | Cc1ccc(CN(CCCn2ccnc2)Cc2c[nH]cn2)s1 [CBK283136] | 95.1
